The target of one assay is hCA XII (Homo sapiens, UniProt O43570). In words: CA inhibitory activity, spectrophotometric p-NPA assay. The format is biochemical. To be noted: for IC50: p-NPA substrate, pH 7.5, 25 °C, triplicate, read-out: IC50 (µM) ± SD hCA XII.
Assay [1] relates to MCF-7 breast cancer cell line. The assay is described as follows: In vitro cytotoxicity, MTT assay. The conditions noted are these: Homo sapiens.
Procedure: In vitro cytotoxic activity:
Firstly, cultures were delivered into sterile area then each vial was supplied with 3 mL of medium or balanced salt solution free from phenol red and serum. Cultures were subjected to incubation foe 2-4 g. After the incubation period, MTT solubilization solution was added to remove the produced formazan crystals. Spectrophotometric measurement of absorbance was carried out at 690 nm for the background which then subtracted from absorbance measured at 570 nm. Five different drug concentrations were used 100, 25, 6.3, 1.6 and 0.4 nM and measured in triplicate.
was determined using Annexin V-FITC Apoptosis Detection Kit (Bio Vision) according to the manufacturer’s procedures. Briefly, cell lines were cultured and incubated with each of the tested compounds for 48 h. Then, the cells were collected by centrifugation and resuspended in 500 μl of 1X binding buffer. 5 μl of Annexin V-FITC was added and 5 μl of propidium iodide (PI 50 mg/ml, optional.). The cells were incubated at room temperature for
The subject of assay [2] is MCF-7 breast cancer cell line. The assay is described as follows: Cell cycle analysis by flow cytometry. Format: cell-based, human. The conditions noted are these: 24 h. Background: A flow cytometer gives signals particle by particle.
The next assay relates to SN12C. The assay is described as follows: NCI-60 one-dose SRB screen (Renal Cancer). The format is cell-based. The conditions noted are these: Homo sapiens, single dose 10 µM, 48 h, read-out: Growth inhibition percent (GI %).
The next assay has as its system A498. The assay is described as follows: NCI-60 one-dose SRB screen (Renal Cancer). The format is cell-based. The conditions noted are these: Homo sapiens, single dose 10 µM, 48 h, read-out: Growth inhibition percent (GI %).
The subject of another assay is RXF 393. The assay is described as follows: NCI-60 one-dose SRB screen (Renal Cancer). Format: cell-based. To be noted: Homo sapiens, single dose 10 µM, 48 h, read-out: Growth inhibition percent (GI %).
Another assay relates to UO-31. In words: NCI-60 one-dose SRB screen (Renal Cancer). Format: cell-based. The conditions noted are these: Homo sapiens, single dose 10 µM, 48 h, read-out: Growth inhibition percent (GI %).
In another assay the test system is 786-0. In words: NCI-60 one-dose SRB screen (Renal Cancer). Format: cell-based. To be noted: Homo sapiens, single dose 10 µM, 48 h, read-out: Growth inhibition percent (GI %).
A further assay relates to ACHN. In words: NCI-60 one-dose SRB screen (Renal Cancer). The conditions noted are these: Homo sapiens, single dose 10 µM, 48 h, read-out: Growth inhibition percent (GI %). Format: cell-based.
The test system of another assay is CAKI-1. In words: NCI-60 one-dose SRB screen (Renal Cancer). Format: cell-based. The conditions noted are these: Homo sapiens, single dose 10 µM, 48 h, read-out: Growth inhibition percent (GI %).
A further assay deals with TK-10. The assay is described as follows: NCI-60 one-dose SRB screen (Renal Cancer). Format: cell-based. The conditions noted are these: Homo sapiens, single dose 10 µM, 48 h, read-out: Growth inhibition percent (GI %).
For another assay, the system named is SNB-19. The assay is described as follows: NCI-60 one-dose SRB screen (CNS Cancer). The conditions noted are these: Homo sapiens, single dose 10 µM, 48 h, read-out: Growth inhibition percent (GI %). Format: cell-based.
The test system of another assay is U251. The assay is described as follows: NCI-60 one-dose SRB screen (CNS Cancer). The format is cell-based. The conditions noted are these: Homo sapiens, U-251, single dose 10 µM, 48 h, read-out: Growth inhibition percent (GI %).
A further assay has as its system SNB-75. The assay is described as follows: NCI-60 one-dose SRB screen (CNS Cancer). The format is cell-based. To be noted: Homo sapiens, single dose 10 µM, 48 h, read-out: Growth inhibition percent (GI %).
Another assay relates to SF-295. The assay is described as follows: NCI-60 one-dose SRB screen (CNS Cancer). The format is cell-based. To be noted: Homo sapiens, single dose 10 µM, 48 h, read-out: Growth inhibition percent (GI %).
A further assay has as its system SF-539. In words: NCI-60 one-dose SRB screen (CNS Cancer). Format: cell-based. The conditions noted are these: Homo sapiens, single dose 10 µM, 48 h, read-out: Growth inhibition percent (GI %).
For another assay, the system named is SF-268. The assay is described as follows: NCI-60 one-dose SRB screen (CNS Cancer). The conditions noted are these: Homo sapiens, single dose 10 µM, 48 h, read-out: Growth inhibition percent (GI %). Format: cell-based.
In the next assay the test system is MDA-MB-468. In words: NCI-60 one-dose SRB screen (Breast Cancer). The conditions noted are these: Homo sapiens, single dose 10 µM, 48 h, read-out: Growth inhibition percent (GI %). Format: cell-based.
For a further assay, the system named is BT-549. The assay is described as follows: NCI-60 one-dose SRB screen (Breast Cancer). The format is cell-based. To be noted: Homo sapiens, single dose 10 µM, 48 h, read-out: Growth inhibition percent (GI %).
Assay [3] concerns MCF-7 breast cancer cell line. In words: Apoptotic assay, Annexin V-FITC/propidium iodide. Format: cell-based, human. Here is the method:
S.1.4. Cell cycle analysis and Apoptotic assay
S.1.4.1. Cell cycle analysis […]
Briefly, cell lines were cultured and incubated with each of the tested compounds for 48 h. Then, the cells were collected by centrifugation and resuspended in 500 μl of 1X binding buffer. 5 μl of Annexin V-FITC was added and 5 μl of propidium iodide (PI […], optional.). The cells were incubated at room temperature for 5 min in the dark. Annexin V-FITC binding was analyzed by flow cytometry (Ex = 488 nm; Em = 530 nm) using FITC signal detector and PI staining was analyzed by the phycoerythrin emission signal detector.
S.1.4.2. Apoptotic assay: cell lines were cultured and incubated with each of the tested compounds for 48 h.
Then, the cells were collected by centrifugation and resuspended in 500 μl of 1X binding buffer. 5 μl of Annexin V-FITC was added and 5 μl of propidium iodide (PI 50 mg/ml, optional.). the cells were incubated at room temperature for 5 min in the dark. Annexin V-FITC binding was analyzed by flow cytometry (Ex = 488 nm; Em = 530 nm) using FITC signal detector and PI staining was analyzed by the phycoerythrin emission signal detector.

The mark [4] stands for this setting: MCF-7, hypoxic conditions, at IC50 (3.50 µM).
Setting [5] is: MCF-7, normal conditions, at IC50 (5.21 µM).

Consider six compounds from paper PMC12454493, “Insight on novel sulfamoylphenyl pyrazole derivatives as anticancer carbonic anhydrase inhibitors” (Molecular Diversity, 2024).

Where “and” joins values, the source holds several entries; their conditions need not be identical. Identical values can stand only once. Like-named read-outs stand apart in the source and are kept apart here.

Sequence of hCA XII (O43570 25-354): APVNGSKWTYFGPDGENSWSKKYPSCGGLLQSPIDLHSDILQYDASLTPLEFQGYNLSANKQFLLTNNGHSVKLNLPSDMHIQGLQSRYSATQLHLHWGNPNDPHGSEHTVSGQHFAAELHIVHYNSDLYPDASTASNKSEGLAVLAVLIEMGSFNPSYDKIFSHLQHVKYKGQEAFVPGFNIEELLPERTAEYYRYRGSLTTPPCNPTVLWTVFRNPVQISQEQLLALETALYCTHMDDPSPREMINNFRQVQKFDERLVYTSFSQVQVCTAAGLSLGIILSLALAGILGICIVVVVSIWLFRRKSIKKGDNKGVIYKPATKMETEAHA
Procedure for hCA XII: The software used to calculate CA IC50 along with statistical analysis of the results is GraphPad Prism 9.00. Results were estimated by using one-way ANOVA and the Bonferroni’s multiple comparisons posthoc test was performed (P < 0.05) [46]
Carbonic anhydrase inhibitory activity:
The spectrophotometric assay was conducted in HEPES-Tris buffer, NaCl of pH 7.5 (20mM) at 25◦C. Each inhibitory well-consisted of 50 μL of assay buffer solution, 20 μL of hCA enzyme solution (20 ng/μL in Assay Buffer), and 50 μL of test compound in HPLC grade DMSO (maintain 10% of the final concentration). The mixture solution was
Substrate p-nitrophenyl acetate (p-NPA) (0.7mM) was prepared in HPLC grade methanol and the reaction was started by adding 20 μL to a well in a 96-well-plate. The amount of product formed was measured for 30 min continuously at 1 min intervals at 400 nm in a 96-well-plate using xMARK microplate spectrophotometer, Bio-Rad (USA). The activity of the controlled compound was taken as 100%. All experiments were carried out in triplicates of each used concentration, and results are represented as a

Compound `CCOC(=O)c1ccc(NC(=O)COC(=O)c2cn(-c3ccc(S(N)(=O)=O)cc3)nc2-c2ccc(C)cc2)cc1` [Compound 5b, 2-[(4-(Ethoxycarbonyl)phenyl)amino]-2-oxoethyl 1-(4-sulfamoylphenyl)-3-(p-tolyl)-1H-pyrazole-4-carboxylate] had a Ki at hCA XII of 0.106 µM. The 50% inhibitory concentration (IC50) was 0.1 µM and 0.106 µM at hCA XII; 5.21 ± 0.21 µM in [1] (MCF7, read-out: IC50 (µM) ± SD cytotoxic activity, MCF-7, MTT, normal conditions); 3.5 ± 0.14 µM in [1] (MCF7, read-out: IC50 (µM) ± SD cytotoxic activity, MCF-7, MTT, under hypoxia). Also, the “DNA content % G0-G1” value in [2] (setting [4]) worked out at 48.13%; in assay [2] (setting [5]) it was 67.39%. The “DNA content % G2/M” value in [2] (setting [4]) was 32.28%; in [2] (setting [5]), 3.05%. The “DNA content % S” value in [2] (setting [4]) amounted to 19.59%; in [2] (setting [5]), 29.56%. For the same compound, the inhibition at 10 µM in the assay with SN12C turned out to be 38.2%; in the assay with A498, 31.7%; in the assay with RXF 393 it was 73.2%; in the assay on UO-31 it was 58.8%; in the assay on 786-0 it was 66%; in the assay with ACHN it was 52.8%. The inhibition at 10 µM amounted to 70.2% in the assay on CAKI-1; 14% in the assay with TK-10; 48.4% with SNB-19; 54.1% in the assay on U251; 62.9% in the assay with SNB-75; 54.8% in the assay on SF-295. Also, the inhibition at 10 µM is 60.9% with SF-539, 55.4% with SF-268, 52.5% in the assay with MDA-MB-468 and 39.7% in the assay with BT-549. The “Apoptosis % Early %” value was 21.41% in [3] (MCF-7, hypoxic conditions) and 13.52% in assay [3] (MCF-7, normal conditions). Besides, the “Apoptosis % Late %” value in [3] (MCF-7, hypoxic conditions) is on record as 11.49%; in [3] (MCF-7, normal conditions), 25.05%. The “Apoptosis % Total %” value in assay [3] (MCF-7, hypoxic conditions) is recorded as 37.31%. Also, the Necrosis % is given as 4.41% in assay [3] (MCF-7, hypoxic conditions) and 3.76% in [3] (MCF-7, normal conditions).
With `Cc1ccc(-c2nn(-c3ccc(S(N)(=O)=O)cc3)cc2C(=O)OCC(=O)Nc2nnc(S(N)(=O)=O)s2)cc1` [Compound 6b, 2-Oxo-2-[(5-sulfamoyl-1,3,4-thiadiazol-2-yl)amino] ethyl 1-(4-sulfamoylphenyl)-3-(p-tolyl)-1H-pyrazole-4-carboxylate], the IC50 on hCA XII was determined as 1.7 ± 0.064 µM. The inhibition at 10 µM in the assay on SN12C was less than 5%; with A498 it was 7.37%; with RXF 393, less than 5%; in the assay with UO-31, 10.8%; in the assay on 786-0 it was 5.95%; in the assay with ACHN, less than 5%. Moreover, the inhibition at 10 µM is 28% in the assay with CAKI-1; less than 5% in the assay with TK-10; 5.72% in the assay with SNB-19; less than 5% in the assay on U251; 23.9% in the assay on SNB-75; less than 5% in the assay on SF-295. In addition, the inhibition at 10 µM is 7.75% in the assay on SF-539, 9.87% in the assay on SF-268, less than 5% in the assay on MDA-MB-468 and less than 5% in the assay with BT-549.
With `COc1ccc(-c2nn(-c3ccc(S(N)(=O)=O)cc3)cc2C(=O)OCC(=O)Nc2nnc(S(N)(=O)=O)s2)cc1` [Compound 6c, 2-Oxo-2-[(5-sulfamoyl-1,3,4-thiadiazol-2-yl)amino] ethyl 3-(4-methoxyphenyl)-1-(4-sulfamoylphenyl)-1H-pyrazole-4-carboxylate], the Ki on hCA XII stood at 0.095 µM. Further, the IC50 on hCA XII was 0.09 µM and 0.095 µM. In addition, the inhibition at 10 µM with SN12C is less than 5%; in the assay with A498, 7.75%; in the assay with RXF 393, less than 5%; in the assay with UO-31, 14.9%; with 786-0, less than 5%; in the assay on ACHN, less than 5%. Moreover, the inhibition at 10 µM with CAKI-1 was 21.5%; with TK-10, less than 5%; with SNB-19 it was less than 5%; in the assay on U251, less than 5%; with SNB-75, 13.4%; in the assay on SF-295, less than 5%. The inhibition at 10 µM with SF-539 is less than 5%; with SF-268, less than 5%; in the assay with MDA-MB-468, 7.76%; in the assay on BT-549, less than 5%.
For the compound `Cc1ccc(-c2nn(-c3ccc(S(N)(=O)=O)cc3)cc2C(=O)NNC(N)=S)cc1` [Compound 9b, 2-[1-(4-Sulfamoylphenyl)-3-(p-tolyl)-1H-pyrazole-4-carbonyl] hydrazine-1-carbothioamide], the IC50 at hCA XII is 0.33 µM and 0.335 µM. In addition, the inhibition at 10 µM with SN12C, in the assay with A498, with RXF 393, in the assay on UO-31, in the assay on 786-0 and in the assay with ACHN was less than 5% each time. The inhibition at 10 µM is 7.05% with CAKI-1; less than 5% in the assay on TK-10; less than 5% in the assay with SNB-19; less than 5% in the assay with U251; 6.3% in the assay on SNB-75; less than 5% in the assay with SF-295. The inhibition at 10 µM in the assay on SF-539 was 5.95%; with SF-268 it was less than 5%; in the assay with MDA-MB-468 it was less than 5%; in the assay with BT-549 it was less than 5%.
`NC(=S)NNC(=O)c1cn(-c2ccc(S(N)(=O)=O)cc2)nc1-c1ccc(Br)cc1` [Compound 9d, 2-[3-(4-Bromophenyl)-1-(4-sulfamoylphenyl)-1H-pyrazole-4-carbonyl] hydrazine-1-carbothioamide]: on hCA XII, the concentration for half-maximal inhibition (IC50) amounted to 1.42 ± 0.053 µM. Moreover, the inhibition at 10 µM with SN12C is less than 5%; in the assay on A498, less than 5%; in the assay on RXF 393, less than 5%; in the assay on UO-31, 14.7%; with 786-0, less than 5%; with ACHN, less than 5%. Moreover, the inhibition at 10 µM with CAKI-1 is 12.1%; in the assay with TK-10 it was less than 5%; in the assay on SNB-19, less than 5%; in the assay with U251, less than 5%; in the assay on SNB-75, 12.1%; in the assay on SF-295, less than 5%. Also, the inhibition at 10 µM with SF-539 is 6.59%; in the assay with SF-268, less than 5%; in the assay with MDA-MB-468, less than 5%; in the assay with BT-549 it was less than 5%.
Turning to `CS(=O)(=O)c1ccc(-c2nn(-c3ccc(S(N)(=O)=O)cc3)cc2C(=O)NNC(N)=S)cc1` [Compound 9e, 2-[3-(4-(Methylsulfonyl)phenyl)-1-(4-sulfamoylphenyl)-1H-pyrazole-4-carbonyl] hydrazine-1-carbothioamide], the IC50 at hCA XII is 0.929 ± 0.035 µM. In addition, the inhibition at 10 µM in the assay on SN12C is less than 5%; in the assay on A498, less than 5%; with RXF 393 it was less than 5%; in the assay with UO-31, 5.48%; in the assay on 786-0, less than 5%; with ACHN it was less than 5%. Moreover, the inhibition at 10 µM in the assay on CAKI-1 was 9.93%; in the assay on TK-10, less than 5%; in the assay on SNB-19, less than 5%; in the assay with U251, less than 5%; in the assay with SNB-75 it was 15.9%; with SF-295, less than 5%. Moreover, the inhibition at 10 µM with SF-539 was less than 5%; with SF-268, less than 5%; with MDA-MB-468, 7.21%; in the assay with BT-549, less than 5%.

A word on the Ki: it is a dissociation constant, usually derived from enzyme kinetics or from competition with a known ligand. A low value points to tighter binding. The IC50 is the concentration that inhibits the measured activity by half. As usually defined, the inhibition is the percentage by which the read-out fell short of the control.
